Key:
[1] = target: T1, CGRP receptor (CLR-RAMP1) in RAMP1-HUVECs (Homo sapiens, UniProt O60894+Q16602); assay: mobilisation of Ca2+i in RAMP1-HUVECs; type: cell-based
T1 construct: biased agonism at the endogenous CLR in a physiological system; the open reading frame of RAMP1 into our HUVEC∆RAMP2 cell line; host or cells: HUVEC-∆RAMP2 (CRISPR-Cas9 RAMP2 knockout pool), lentiviral transduction, blasticidin selection
Protocol: (§1) Data are analysed using a three-parameter non-linear regression curve or the operational model of receptor agonism. g–h Signalling bias plots were calculated as ∆Log(τ/KA) (g) or ∆∆Log(τ/KA) (h) for each agonist and for each signalling pathway. […] All data represent mean ± SEM for n repeats.
All cell lines were plated at 20,000 cells/well on 96-well black clear-bottom plates (Costar, UK) 24 h before the experiment. […] Cells were then washed twice with calcium-free HBSS, then were left in 100 μl calcium-free HBSS for the duration of the assay. […] Data was normalised to the response seen with 10 μM Ionomycin.
(§2) All sample sizes were determined, and data analysed, in accordance with the guidelines described by Curtis M et al.[65]. All experiments were appropriately controlled using ‘system pathway’ agonists. If any of these pathway controls generated inappropriate responses, then the entire data set was removed from analysis. […] Data analysis for cAMP accumulation, Ca^2+i mobilisation, NO accumulation, pERK1/2 activation, and cell proliferation assays were performed in GraphPad Prism 8.4 (GraphPad Software, San Diego). Data were fitted to obtain concentration–response curves using either the three-parameter logistic equation using to obtain values of Emax and pEC50 or the operational model of agonism. Statistical differences were analysed using one-way ANOVA followed by Dunnett’s post-hoc (for comparisons amongst more than two groups) or unpaired Student’s t test with Welch’s correction (for comparison between two groups).

[2] = target: T1, CGRP receptor (CLR-RAMP1) in RAMP1-HUVECs; assay: ERK1/2 phosphorylation in RAMP1-HUVECs; type: cell-based
Protocol: as §1
(§3) Primary cells were grown in 6 well plates, on the day of the experiment media was replaced with serum free media 4 h prior to cell harvesting. Tyrpsin-EDTA was used to dissociate the cells and they were collected by centrifugation, counted and re-suspended HBSS/BSA (0.1%). Ligands were also diluted in HBSS/BSA. Cells were then plated on 384 well plates in 8 μl aliquots at a density of 20,000 cells/well. Next, ligands were added (4 μl) for 5 min stimulation at room temperature. Cells were then lysed as per to the manufacturer’s instructions with 4 μl of lysis buffer (Cisbio phosphor-ERK1/2 cellular assay kit, Invitrogen, UK) for 30 min shaking at room temperature. The 2 specific antibodies; were pre-mixed in a 1:1 ratio. 4 μl of this was added to each well and the plate incubated for a further 2 h.
All sample sizes were determined, and data analysed, in accordance with the guidelines described by Curtis M et al.[65]. All experiments were appropriately controlled using ‘system pathway’ agonists. If any of these pathway controls generated inappropriate responses, then the entire data set was removed from analysis.

[3] = target: T2, CGRP receptor (CLR-RAMP1) in human cardiomyocytes (HCMs) (Homo sapiens, UniProt O60894+Q16602); assay: mobilisation of Ca2+i in HCMs; type: cell-based
T2 construct: primary human cardiomyocytes (HCMs) since these cells only expressed CLR and RAMP1; host or cells: primary human cardiomyocytes (HCMs)
Protocol: (§4) Data are analysed using a three-parameter non-linear regression curve or the operational model of receptor agonism. g, h Signalling bias plots were calculated as ∆Log(τ/KA) (g) or ∆∆Log(τ/KA) (h) for each agonist and for each signalling pathway. […] All data represent mean ± SEM for n repeats.
All cell lines were plated at 20,000 cells/well on 96-well black clear-bottom plates (Costar, UK) 24 h before the experiment. […] Cells were then washed twice with calcium-free HBSS, then were left in 100 μl calcium-free HBSS for the duration of the assay. In conditions where Gαq/11/14 signalling is inhibited, cells were pre-treated with 100 nM YM-254890 (Alpha Laboratories, UK) (30 min)[22]. All assays were performed using the BD Pathway 855 Bioimaging Systems (BD Biosciences, UK), which dispenses ligands (20 μl) and reads immediately for 2 min. Data was normalised to the response seen with 10 μM Ionomycin.
(§5) All sample sizes were determined, and data analysed, in accordance with the guidelines described by Curtis M et al.[65]. All experiments were appropriately controlled using ‘system pathway’ agonists. If any of these pathway controls generated inappropriate responses, then the entire data set was removed from analysis. […] Data analysis for cAMP accumulation, Ca^2+i mobilisation, NO accumulation, pERK1/2 activation, and cell proliferation assays were performed in GraphPad Prism 8.4 (GraphPad Software, San Diego). Data were fitted to obtain concentration–response curves using either the three-parameter logistic equation using to obtain values of Emax and pEC50 or the operational model of agonism. Statistical differences were analysed using one-way ANOVA followed by Dunnett’s post-hoc (for comparisons amongst more than two groups) or unpaired Student’s t test with Welch’s correction (for comparison between two groups). To account for the day-to-day variation experienced from the cultured cells, we used the maximal level of cAMP accumulation from cells in response to 100 μM forskolin stimulation was used as a reference, 10 μM ionomycin for Ca^2+i assays, 10 μM phorbol 12-myristate 13-acetate (PMA) for pERK1/2 activation, 10 μM acetylcholine for NO production and 10 μM VEGF for cell proliferation. […] Where appropriate the operational model for receptor agonism[27] was used to obtain efficacy (τ) and equilibrium disassociation constant (KA) values. In both cases, this normalisation removes the variation due to differences in days but retains the variance for control values. The means of individual experiments were combined to generate the curves shown. Having obtained values for τ and KA these were then used to quantify signalling bias as the change in Log(τ/KA)[19],[28]. Error for this composite measure was propagated by applying Eq. 1.1 PooledSEM=(SEMA)^2+(SEMB)^2 Where, SEMA and SEMB are the standard error of measurement A and B.

[4] = target: T2, CGRP receptor (CLR-RAMP1) in human cardiomyocytes (HCMs); assay: ERK1/2 phosphorylation in HCMs; type: cell-based
Protocol: as §4, §3, §5

[5] = target: T3, AM1 receptor (CLR-RAMP2) in HUVECs (Homo sapiens, UniProt O60895+Q16602); assay: signalling bias analysis (operational model) in HUVECs; settings: HUVEC; ΔΔLog(τ/KA), reference AM and cAMP
T3 construct: HUVECs specifically express the AM1 receptor alone; host or cells: primary HUVECs
Protocol: as §2, with “groups). […] Having obtained values for τ and KA these were then used to quantify signalling bias as the change in Log(τ/KA)[19],[28]. […]” for “groups).”

[6] = Ca2+i, RAMP1-HUVEC, operational model, mean ± SEM
[7] = pERK1/2, RAMP1-HUVEC, operational model, mean ± SEM
[8] = Ca2+i, HCM, operational model, mean ± SEM
[9] = pERK1/2, HCM, operational model, mean ± SEM

T2 sequence (Q16602 23-461): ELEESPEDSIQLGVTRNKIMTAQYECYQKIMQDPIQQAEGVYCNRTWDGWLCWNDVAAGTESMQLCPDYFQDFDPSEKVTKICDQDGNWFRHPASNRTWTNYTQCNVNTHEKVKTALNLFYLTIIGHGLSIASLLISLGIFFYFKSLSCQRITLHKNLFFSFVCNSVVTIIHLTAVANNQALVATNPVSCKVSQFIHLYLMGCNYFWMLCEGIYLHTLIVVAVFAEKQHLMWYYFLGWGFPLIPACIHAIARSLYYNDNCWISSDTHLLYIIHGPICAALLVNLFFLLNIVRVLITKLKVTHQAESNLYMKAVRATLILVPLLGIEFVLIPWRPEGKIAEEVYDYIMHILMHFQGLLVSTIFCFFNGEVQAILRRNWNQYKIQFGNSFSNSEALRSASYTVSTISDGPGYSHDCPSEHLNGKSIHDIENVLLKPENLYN
T2 sequence (O60894 27-148): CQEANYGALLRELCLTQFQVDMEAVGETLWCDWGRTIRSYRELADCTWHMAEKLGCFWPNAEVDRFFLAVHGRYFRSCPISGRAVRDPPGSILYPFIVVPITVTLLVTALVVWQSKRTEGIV
T1 sequence (Q16602 23-461): as the sequence (Q16602 23-461) above
T1 sequence (O60894 27-148): as the sequence (O60894 27-148) above
T3 sequence (Q16602 23-461): as the sequence (Q16602 23-461) above
T3 sequence (O60895 43-175): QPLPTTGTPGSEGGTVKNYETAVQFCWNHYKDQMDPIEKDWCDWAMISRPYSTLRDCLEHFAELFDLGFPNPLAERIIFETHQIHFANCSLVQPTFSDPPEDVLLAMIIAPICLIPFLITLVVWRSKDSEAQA

Which results are given for `CSCC[C@H](NC(=O)[C@H](CC(C)C)NC(=O)[C@H](CCC(N)=O)NC(=O)[C@H](Cc1c[nH]c2ccccc12)NC(=O)[C@H](CC(C)C)NC(=O)[C@H](CCCNC(=N)N)NC(=O)[C@H](Cc1c[nH]cn1)NC(=O)[C@H](CO)NC(=O)[C@H](CC(C)C)NC(=O)[C@H](CC(N)=O)NC(=O)[C@H](CCC(N)=O)NC(=O)[C@@H](NC(=O)[C@H](CCC(N)=O)NC(=O)[C@@H]1CSSC[C@H](NC(=O)CNC(=O)[C@@H](NC(=O)[C@H](CCCNC(=N)N)NC(=O)[C@H](CC(C)C)NC(=O)[C@H](CC(C)C)NC(=O)[C@H](CCC(N)=O)NC(=O)[C@H](C)NC(=O)[C@H](CCC(N)=O)NC(=O)[C@@H](N)[C@@H](C)O)C(C)C)C(=O)N[C@@H](C(C)C)C(=O)N[C@@H](CC(C)C)C(=O)NCC(=O)N[C@@H]([C@@H](C)O)C(=O)N1)C(C)C)C(=O)NCC(=O)N1CCC[C@H]1C(=O)N[C@@H](C)C(=O)NCC(=O)N[C@@H](CCCNC(=N)N)C(=O)N[C@@H](CCC(N)=O)C(=O)N[C@@H](CC(=O)O)C(=O)N[C@@H](CO)C(=O)N[C@@H](C)C(=O)N1CCC[C@H]1C(=O)N[C@H](C(=O)N[C@@H](CC(=O)O)C(=O)N1CCC[C@H]1C(=O)N[C@@H](CO)C(=O)N[C@@H](CO)C(=O)N1CCC[C@H]1C(=O)N[C@@H](Cc1c[nH]cn1)C(=O)N[C@@H](CO)C(=O)N[C@@H](Cc1ccc(O)cc1)C(N)=O)C(C)C` [AM2, adrenomedullin 2]?
Emax [1]: 41 ± 2.26%; Transducer coefficient Log(τ/KA) ([1]; Ca2+i, RAMP1-HUVEC, calculated from Table S2): 5.46±0.19; logτ [1, 6]: -0.18±0.06; pKA [1, 6]: 5.64±0.18; Emax [2]: 45.4 ± 2.89%; Transducer coefficient Log(τ/KA) ([2]; pERK1/2, RAMP1-HUVEC, calculated from Table S2): 6.50±0.15; logτ [2, 7]: -0.06±0.05; pKA [2, 7]: 6.56±0.14; Emax [3]: 36.5 ± 2.31%; Transducer coefficient Log(τ/KA) ([3]; Ca2+i, HCM, calculated from Table S2): 7.61±0.35; logτ [3, 8]: -0.30±0.05; pKA [3, 8]: 7.91±0.35; Emax [4]: 40.4 ± 4.17%; Transducer coefficient Log(τ/KA) ([4]; pERK1/2, HCM, calculated from Table S2): 5.32±0.20; logτ [4, 9]: -0.20±0.08; pKA [4, 9]: 5.52±0.18; agonist bias [5]: biased towards Ca^2+i mobilisation and NO production

What does the source list for `CC[C@H](C)[C@H](NC(=O)[C@H](CCC(N)=O)NC(=O)[C@H](Cc1c[nH]cn1)NC(=O)[C@H](C)NC(=O)[C@H](CC(C)C)NC(=O)[C@H](CCCCN)NC(=O)[C@H](CCC(N)=O)NC(=O)[C@@H](NC(=O)[C@@H](NC(=O)[C@@H]1CSSC[C@H](NC(=O)CNC(=O)[C@H](Cc2ccccc2)NC(=O)[C@H](CO)NC(=O)[C@H](CCCNC(=N)N)NC(=O)[C@H](CC(C)C)NC(=O)CNC(=O)[C@H](CCC(N)=O)NC(=O)[C@H](Cc2ccccc2)NC(=O)[C@H](CC(N)=O)NC(=O)[C@H](CC(N)=O)NC(=O)[C@H](CCSC)NC(=O)[C@H](CO)NC(=O)[C@H](CCC(N)=O)NC(=O)[C@H](CCCNC(=N)N)NC(=O)[C@@H](N)Cc2ccc(O)cc2)C(=O)N[C@@H](CCCNC(=N)N)C(=O)N[C@@H](Cc2ccccc2)C(=O)NCC(=O)N[C@@H]([C@@H](C)O)C(=O)N1)[C@@H](C)O)C(C)C)C(=O)N[C@@H](Cc1ccc(O)cc1)C(=O)N[C@@H](CCC(N)=O)C(=O)N[C@@H](Cc1ccccc1)C(=O)N[C@H](C(=O)N[C@@H](CC(=O)O)C(=O)N[C@@H](CCCCN)C(=O)N[C@@H](CC(=O)O)C(=O)N[C@@H](CCCCN)C(=O)N[C@@H](CC(=O)O)C(=O)N[C@@H](CC(N)=O)C(=O)N[C@H](C(=O)N[C@@H](C)C(=O)N1CCC[C@H]1C(=O)N[C@@H](CCCNC(=N)N)C(=O)N[C@@H](CO)C(=O)N[C@@H](CCCCN)C(=O)N[C@H](C(=O)N[C@@H](CO)C(=O)N1CCC[C@H]1C(=O)N[C@@H](CCC(N)=O)C(=O)NCC(=O)N[C@@H](Cc1ccc(O)cc1)C(N)=O)[C@@H](C)CC)C(C)C)[C@@H](C)O` [AM, adrenomedullin]?
Emax ([1]; Ca2+i, RAMP1-HUVEC, relative to 10 μM ionomycin, mean ± SEM, read-out: Emax): 44.1 ± 1.42%; Emax ([2]; pERK1/2, RAMP1-HUVEC, 5 min, relative to 10 μM PMA, mean ± SEM, read-out: Emax): 47.6 ± 1.48%; Emax ([3]; Ca2+i, HCM, relative to 10 μM ionomycin, mean ± SEM, read-out: Emax): 58.12 ± 0.15%; Emax ([4]; pERK1/2, HCM, 5 min, relative to 10 μM PMA, mean ± SEM, read-out: Emax): 40.1 ± 2.02%
